Results reported in patent US11110082B2, “Tyrosine kinase inhibitors” (Rigel Pharmaceuticals, Inc., priority 2016, dated 2021).

What follows are compounds tested against T1, MerTK (Homo sapiens, UniProt Q12866) (assay: PAKT HTRF-HUVEC assay (pAkt Ser473 HTRF after anti-human MerTK-XL stimulation)). Conditions: HUVEC cells, 1 hour compound, stimulated with anti-human MerTK-XL 1 ug/mL for 10 minutes, read-out: inhibition of MerTK.
T1 construct: Seed HUVECs (10K cells/well) in EBM-2 complete media; host or cells: HUVEC (primary human umbilical vein endothelial cells)
T1 sequence (Q12866 21-999): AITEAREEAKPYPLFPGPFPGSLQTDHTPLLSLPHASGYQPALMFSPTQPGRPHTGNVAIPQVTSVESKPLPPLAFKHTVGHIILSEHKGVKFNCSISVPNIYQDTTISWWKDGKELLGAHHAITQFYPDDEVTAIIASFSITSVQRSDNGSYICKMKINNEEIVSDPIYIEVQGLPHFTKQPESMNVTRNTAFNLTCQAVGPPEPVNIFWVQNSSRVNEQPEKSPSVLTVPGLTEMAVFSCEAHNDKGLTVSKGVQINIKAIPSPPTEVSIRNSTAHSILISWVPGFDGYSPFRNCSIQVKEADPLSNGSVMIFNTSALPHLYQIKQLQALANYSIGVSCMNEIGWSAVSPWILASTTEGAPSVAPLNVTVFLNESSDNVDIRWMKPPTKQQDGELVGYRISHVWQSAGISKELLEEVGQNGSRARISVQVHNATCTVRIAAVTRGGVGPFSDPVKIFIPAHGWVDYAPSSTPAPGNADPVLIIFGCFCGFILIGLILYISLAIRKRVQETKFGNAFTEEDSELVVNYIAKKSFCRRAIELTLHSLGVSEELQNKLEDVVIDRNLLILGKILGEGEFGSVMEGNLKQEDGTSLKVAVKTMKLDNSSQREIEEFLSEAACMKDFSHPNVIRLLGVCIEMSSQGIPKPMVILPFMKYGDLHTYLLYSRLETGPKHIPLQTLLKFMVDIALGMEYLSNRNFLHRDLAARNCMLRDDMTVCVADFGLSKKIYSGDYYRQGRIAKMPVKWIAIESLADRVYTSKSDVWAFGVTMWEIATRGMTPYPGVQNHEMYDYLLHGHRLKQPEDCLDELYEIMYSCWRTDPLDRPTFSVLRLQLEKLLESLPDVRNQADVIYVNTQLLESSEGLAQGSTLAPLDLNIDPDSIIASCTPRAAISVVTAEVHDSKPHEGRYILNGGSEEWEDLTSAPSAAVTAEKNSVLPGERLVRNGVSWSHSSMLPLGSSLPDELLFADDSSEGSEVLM
Assay type: cell-based
Description: Example 4: PAKT HTRF-HUVEC Assay Phospho Akt (Ser473) Assay kit-10,000 tests (Cisbio US, 64[…]) HUVEC cells (Lonza, CC-2519) Anti-human MerTK antibody (Clone 125518) (R&D Systems, MAB8912) Method Seed HUVECs (10K cells/well) in EBM-2 complete media (EBM-2 basal medium plus EGM-2 BulletKit supplements) overnight at 37° C., 5% CO2 in Costar 96-well white clear-bottom plates. Remove culture media and starve cells for 3-4 hours in 50 μL/well EBM-2 basal medium. Perform serial dilution of compounds in DMSO from 2.5 mM in 4-fold dilutions, and then dilute 1:125 in EBM-2 basal media. Mix 50 μL/well 2x compounds with 50 μL/well HUVECs in duplicate in Costar 96-well white clear-bottom plates. Incubate plates for 1 hour at 37° C., 5% CO2. Cross-link anti-human MerTK antibody to Biotin-SP-conjugated anti-mouse IgG antibody (1:1) to give final concentrations of 5 ug/mL of anti-human MerTK-XL. Stimulate HUVECs with 25 μL/well 5x anti-human MerTK-XL to give final concentrations of 1 ug/mL for 10 minutes at 37° C., 5% CO2. Completely remove media and lyse HUVECs with 40 uL/WELL per well of Cisbio HTRF 1× lysis buffer. Performed pAkt(Ser473) HTRF assay in ProxiPlate-384 Plus, white 384-shallow well microplate according to the vendor protocol and read plates with a SpectralMax Paradigm plate reader. Enter the HTRF values into Athena (Rigel) for curve fitting, EC50 calculation, and database storage.
In the case of O=c1c2cc(CN3CCOCC3)ccc2c2cnc(NCCC3CC3)nc2n1[C@H]1CC[C@H](O)CC1 [Compound 27, trans-3-((2-Cyclopropylethyl)amino)-5-(4-hydroxycyclohexyl)-8-(morpholinomethyl)pyrimido [4,5-c]isoquinolin-6(5H)-one], the EC50 is reported as 45.9 nM.
In the case of CN1CCN(Cc2ccc3c(c2)c(=O)n(C2CCC(C)(O)CC2)c2nc(NCC4CC4)ncc32)CC1 (stereo not drawn) [Compound 28, trans-3-((Cyclopropylmethyl)amino)-5-(4-hydroxy-4-methylcyclohexyl)-8-((4-methylpiperazin-1-yl)methyl)pyrimido[4,5-c]isoquinolin-6(5H)-one], the EC50 is reported as 36.6 nM.
For CN1CCN(Cc2ccc3c(c2)c(=O)n([C@H]2CC[C@](C)(O)CC2)c2nc(NCCC4CC4)ncc32)CC1 [Compound 29, trans-3-((2-Cyclopropylethyl)amino)-5-(4-hydroxy-4-methylcyclohexyl)-8-((4-methylpiperazin-1-yl)methyl)pyrimido[4,5-c]isoquinolin-6(5H)-one], the EC50 was 6.2 nM.
CC(C)N1CCN(Cc2ccc3c(c2)c(=O)n([C@H]2CC[C@H](O)CC2)c2nc(NCC4CC4)ncc32)CC1 [Compound 30, trans-3-((Cyclopropylmethyl)amino)-5-(4-hydroxycyclohexyl)-8-((4-isopropylpiperazin-1-yl)methyl)pyrimido[4,5-c]isoquinolin-6(5H)-one] gave an EC50 of 18.3 nM.
Compound CC(C)N1CCN(Cc2ccc3c(c2)c(=O)n([C@H]2CC[C@](C)(O)CC2)c2nc(NCC4CC4)ncc32)CC1 [Compound 31, trans-3-((Cyclopropylmethyl)amino)-5-(4-hydroxy-4-methylcyclohexyl)-8-((4-isopropylpiperazin-1-yl)methyl)pyrimido[4,5-c]isoquinolin-6(5H)-one] has an EC50 of 12.5 nM.
In the case of CC(C)N1CCN(Cc2ccc3c(c2)c(=O)n(C2CCC(C)(O)CC2)c2nc(NCCC4CC4)ncc32)CC1 (stereo not drawn) [Compound 32, trans-3-((2-Cyclopropylethyl)amino)-5-(4-hydroxy-4-methylcyclohexyl)-8-((4-isopropylpiperazin-1-yl)methyl)pyrimido[4,5-c]isoquinolin-6(5H)-one], the EC50 is reported as 6.5 nM.
Compound CC(C)N1CCN(Cc2ccc3c(c2)c(=O)n([C@H]2CC[C@H](O)CC2)c2nc(NCC4CCC4)ncc32)CC1 [Compound 33, trans-3-((Cyclobutylmethyl)amino)-5-(4-hydroxycyclohexyl)-8-((4-isopropylpiperazin-1-yl)methyl)pyrimido[4,5-c]isoquinolin-6(5H)-one] has an EC50 of 4.6 nM.
In the case of CN1CCN(Cc2ccc3c(c2)c(=O)n([C@H]2CC[C@](C)(O)CC2)c2nc(NCC4CCC4)ncc32)CC1 [Compound 34, trans-3-((Cyclobutylmethyl)amino)-5-(4-hydroxy-4-methylcyclohexyl)-8-((4-methylpiperazin-1-yl)methyl)pyrimido[4,5-c]isoquinolin-6(5H)-one], the EC50 is reported as 7.4 nM.
O=c1c2cc(CN3CCN(C4COC4)CC3)ccc2c2cnc(NCC3CC3)nc2n1[C@H]1CC[C@H](O)CC1 [Compound 35, trans-3-((Cyclopropylmethyl)amino)-5-(4-hydroxycyclohexyl)-8-((4-(oxetan-3-yl)piperazin-1-yl)methyl)pyrimido[4,5-c]isoquinolin-6(5H)-one] was tested, and the EC50 was 46.7 nM.
C[C@]1(O)CC[C@H](n2c(=O)c3cc(CN4CCN(C5COC5)CC4)ccc3c3cnc(NCC4CC4)nc32)CC1 [Compound 36, trans-3-((Cyclopropylmethyl)amino)-5-(4-hydroxy-4-methylcyclohexyl)-8-((4-(oxetan-3-yl)piperazin-1-yl)methyl)pyrimido[4,5-c]isoquinolin-6(5H)-one] was tested, and the EC50 was 16.8 nM.
Work on O=c1c2cc(CN3CCC(N4CCCC4)CC3)ccc2c2cnc(NCC3CC3)nc2n1[C@H]1CC[C@H](O)CC1 [Compound 37, trans-3-((Cyclopropylmethyl)amino)-5-(4-hydroxycyclohexyl)-8-((4-(pyrrolidin-1-yl)piperidin-1-yl)methyl)pyrimido[4,5-c]isoquinolin-6(5H)-one] yielded an EC50 of 53.8 nM.
Work on C[C@]1(O)CC[C@H](n2c(=O)c3cc(CN4CCC(N5CCCC5)CC4)ccc3c3cnc(NCC4CC4)nc32)CC1 [Compound 38, trans-3-((Cyclopropylmethyl)amino)-5-(4-hydroxy-4-methylcyclohexyl)-8-((4-(pyrrolidin-1-yl)piperidin-1-yl)methyl)pyrimido[4,5-c]isoquinolin-6(5H)-one] yielded an EC50 of 33.3 nM.
Compound O=c1c2cc(CN3CCn4ncnc4C3)ccc2c2cnc(NCC3CC3)nc2n1[C@H]1CC[C@H](O)CC1 [Compound 39, trans-3-((Cyclopropylmethyl)amino)-8-((5,6-dihydro-[1,2,4]triazolo[1,5-a]pyrazin-7(8H)-yl)methyl)-5-(4-hydroxycyclohexyl)pyrimido [4,5-c]isoquinolin-6(5H)-one] has an EC50 of 64.6 nM.
For O=c1c2cc(CN3CCN(CC(F)(F)F)CC3)ccc2c2cnc(NCC3CC3)nc2n1[C@H]1CC[C@H](O)CC1 [Compound 40, trans-3-((Cyclopropylmethyl)amino)-5-(4-hydroxycyclohexyl)-8-((4-(2,2,2-trifluoroethyl)piperazin-1-yl)methyl)pyrimido[4,5-c]isoquinolin-6(5H)-one], the EC50 was 50.7 nM.
In the case of O=c1c2cc(CN3CCN(CC(F)F)CC3)ccc2c2cnc(NCC3CC3)nc2n1[C@H]1CC[C@H](O)CC1 [Compound 43, trans-3-((Cyclopropylmethyl)amino)-8-((4-(2,2-difluoroethyl)piperazin-1-yl)methyl)-5-(4-hydroxycyclohexyl)pyrimido[4,5-c]isoquinolin-6(5H)-one], the EC50 is reported as 51.3 nM.
Compound CCCCNc1ncc2c3ccc(CN4CCNCC4)cc3c(=O)n([C@H]3CC[C@H](O)CC3)c2n1 [Compound 44, trans-3-(Butylamino)-5-(4-hydroxycyclohexyl)-8-(piperazin-1-ylmethyl)pyrimido[4,5-c]isoquinolin-6(5H)-one] has an EC50 of 66 nM.
O=c1c2cc(CN3CCOCC3)ccc2c2cnc(NCC3CC3)nc2n1[C@H]1CC[C@H](O)CC1 [Compound 45, trans-3-((Cyclopropylmethyl)amino)-5-(4-hydroxycyclohexyl)-8-(morpholinomethyl)pyrimido [4,5-c]isoquinolin-6(5H)-one] gave an EC50 of 149 nM.
In the case of C[C@]1(O)CC[C@H](n2c(=O)c3cc(CN4CCOCC4)ccc3c3cnc(NCC4CC4)nc32)CC1 [Compound 46, trans-3-((Cyclopropylmethyl)amino)-5-(4-hydroxy-4-methylcyclohexyl)-8-(morpholinomethyl)pyrimido [4,5-c]isoquinolin-6(5H)-one], the EC50 is reported as 116 nM.
For O=c1c2cc(CN3CCS(=O)(=O)CC3)ccc2c2cnc(NCC3CC3)nc2n1[C@H]1CC[C@H](O)CC1 [Compound 49, trans-3-((Cyclopropylmethyl)amino)-8-((1,1-dioxidothiomorpholino)methyl)-5-(4-hydroxycyclohexyl)pyrimido [4,5-c]isoquinolin-6(5H)-one], the EC50 was 221 nM.
With CCOC(=O)C1CCN(Cc2ccc3c(c2)c(=O)n([C@H]2CC[C@H](O)CC2)c2nc(NCC4CC4)ncc32)CC1 [Compound 50, trans-Ethyl 1-((3-((Cyclopropylmethyl)amino)-5-(4-hydroxycyclohexyl)-6-oxo-5,6-dihydropyrimido[4,5-c]isoquinolin-8-yl)methyl)piperidine-4-carboxylate] the EC50 was 25.9 nM.
